Active and inactive are the calls of the source. No cut-off for these calls is given here.
Test system: P388
Test: Cytotoxicity against mouse P388 cells
Assay type: functional, cell-based

Structure (SMILES): CC1(C)C[C@@]23[C@@H]4CC(=O)[C@@H]2COC(=O)[C@]3(O)CC[C@H]41
- Activity: inactive
